Measurements reported in patent US9182664B2, “Polymerizable fluorine-containing sulfonate, fluorine-containing sulfonate resin, resist composition and pattern-forming method using same” (Central Glass Company, Limited, priority 2010, dated 2015).
Like-named read-outs stand apart in the source and are kept apart here.

Assay: Solubility of polymerizable fluorine-containing sulfonic acid onium salts (polymerizable monomers) in PGMEA
Assay type: physicochemical
Text: The structures and abbreviations of the polymerizable monomers used in this reference example are indicated below. Among others, the monomers PAG-1, PAG-2 and PAG-3 are the polymerizable fluorine-containing sulfonic acid onium salts according to the present invention. [table]

[1] = amount of polymerizable monomer in 100 g of PGMEA

Compound | Solubility (g/100 g) | Solubility (g/100 g) [1] [g/100 g]
C=C(C)C(=O)OC(OCC(F)(F)S(=O)(=O)O)(C(=O)OCC)C(F)(F)F (centres unmarked) [PAG-1, Triphenylsulfonium 2-(1-Ethoxycarbonyl-1-methacryloyloxy-2,2,2-trifluoroethoxy)-1,1-difluoroethanesulfonate] | 45 | –
C=C(C)C(=O)OC(OCCC(F)(F)C(F)(F)S(=O)(=O)O)(C(=O)OCC)C(F)(F)F (centres unmarked) [PAG-2, Triphenylsulfonium 4-(1-Ethoxycarbonyl-1-methacryloyloxy-2,2,2-trifluoroethoxy)-1,1,2,2-tetrafluorobutanesulfonate] | 55 | –
C=C(C)C(=O)OC(OCCCCC(F)(F)C(F)(F)S(=O)(=O)O)(C(=O)OCC)C(F)(F)F (centres unmarked) [PAG-3, Triphenylsulfonium 6-(1-Ethoxycarbonyl-1-methacryloyloxy-2,2,2-trifluoroethoxy)-1,1,2,2-tetrafluorohexanesulfonate] | 90 | –
C=C(C)C(=O)OCC(F)(F)S(=O)(=O)O [PAG-C1, reference compound] | – | 10
C=C(C)C(=O)OCC(=O)OCC(F)(F)S(=O)(=O)O [PAG-C2, reference compound] | – | 11
